Test results from patent US20250051363A1, “Substituted Pyrazolopyridines” (Neuro3 Therapeutics, Inc., priority 2023, published 2025).
Where a name gives a salt, the structure may show the parent alone.

Target: LRRK2 wild-type (Homo sapiens (Human), UniProt Q5S007)
Assay: LanthaScreen LRRK2 Biochemical Activity Assay
Settings: human recombinant LRRK2 (amino acids 970-2527) wild-type, ATP 57 μM, TR-FRET; read-out: IC50 (nM), inhibition of LRRK2 wild-type kinase activity
Description: The ability of a compound of Formula (I) to inhibit LRRK2 kinase activity is measured using a LanthaScreen™ kinase activity assay. In general, in a LanthaScreen™ kinase activity assay, kinase, fluorescein-labeled substrate, and ATP are allowed to react. Then EDTA (to stop the reaction) and terbium-labeled antibody (to detect phosphorylated product) are added. In a LanthaScreen™ kinase reaction, the antibody associates with the phosphorylated fluorescein labeled substrate resulting in an increased TR-FRET value. The TR-FRET value is a dimensionless number that is calculated as the ratio of the acceptor (fluorescein) signal to the donor (terbium) signal. The amount of antibody that is bound to the tracer is directly proportional to the amount of phosphorylated substrate present, and in this manner, kinase activity can be detected and measured by an increase in the TR-FRET value. Accordingly, in this Example, enzyme reactions are carried out in a kinase reaction buffer in the presence or absence of representative compounds of Formula (I) at various concentrations in 384-well plate at room temperature for 60 minutes. The kinase reaction buffer contains human recombinant LRRK2 protein (amino acids 970-2527, 5 nM), ATP (57 μM for LRRK2 wild-type, 134 μM for G2019S mutant protein), Fluorescein-LRRKtide substrate (0.4 mM), 50 mM Tris pH 7.5, 10 mM MgCl2, 1 mM EGTA, 0.01% Brij™-35, and 2 mM DTT. The final reaction volume for each reaction is 10 μL. The reactions are initated by adding the substrate and stopped by the addition of 10 μL of a TR-FRET dilution buffer supplemented with a kinase quench buffer (10 mM EDTA final) and Tb-anti-pLRRKtide (2 nM final). The plate is further incubated at room temperature for another 60 minutes, and the fluorescent signals are read on an EnVision® multilabel plate reader (PerkinElmer, Waltham, MA) with excitation at 340 nm and emission at 495 and 520 nm. The assay signal is determined as a ratio of FRET-specific signal measured with emission filter at 520 nm to that of the signal measured with Tb-specific emission filter at 495 nm. IC50 values for compound-mediated enzyme inhibition are calculated using appropriate programs in GraphPad Prism software by plotting the logarithm of the compound concentrations versus percent inhibition. All reagents are purchased from Thermo Fisher Scientific.

Sequence of LRRK2 wild-type (Q5S007 970-2527): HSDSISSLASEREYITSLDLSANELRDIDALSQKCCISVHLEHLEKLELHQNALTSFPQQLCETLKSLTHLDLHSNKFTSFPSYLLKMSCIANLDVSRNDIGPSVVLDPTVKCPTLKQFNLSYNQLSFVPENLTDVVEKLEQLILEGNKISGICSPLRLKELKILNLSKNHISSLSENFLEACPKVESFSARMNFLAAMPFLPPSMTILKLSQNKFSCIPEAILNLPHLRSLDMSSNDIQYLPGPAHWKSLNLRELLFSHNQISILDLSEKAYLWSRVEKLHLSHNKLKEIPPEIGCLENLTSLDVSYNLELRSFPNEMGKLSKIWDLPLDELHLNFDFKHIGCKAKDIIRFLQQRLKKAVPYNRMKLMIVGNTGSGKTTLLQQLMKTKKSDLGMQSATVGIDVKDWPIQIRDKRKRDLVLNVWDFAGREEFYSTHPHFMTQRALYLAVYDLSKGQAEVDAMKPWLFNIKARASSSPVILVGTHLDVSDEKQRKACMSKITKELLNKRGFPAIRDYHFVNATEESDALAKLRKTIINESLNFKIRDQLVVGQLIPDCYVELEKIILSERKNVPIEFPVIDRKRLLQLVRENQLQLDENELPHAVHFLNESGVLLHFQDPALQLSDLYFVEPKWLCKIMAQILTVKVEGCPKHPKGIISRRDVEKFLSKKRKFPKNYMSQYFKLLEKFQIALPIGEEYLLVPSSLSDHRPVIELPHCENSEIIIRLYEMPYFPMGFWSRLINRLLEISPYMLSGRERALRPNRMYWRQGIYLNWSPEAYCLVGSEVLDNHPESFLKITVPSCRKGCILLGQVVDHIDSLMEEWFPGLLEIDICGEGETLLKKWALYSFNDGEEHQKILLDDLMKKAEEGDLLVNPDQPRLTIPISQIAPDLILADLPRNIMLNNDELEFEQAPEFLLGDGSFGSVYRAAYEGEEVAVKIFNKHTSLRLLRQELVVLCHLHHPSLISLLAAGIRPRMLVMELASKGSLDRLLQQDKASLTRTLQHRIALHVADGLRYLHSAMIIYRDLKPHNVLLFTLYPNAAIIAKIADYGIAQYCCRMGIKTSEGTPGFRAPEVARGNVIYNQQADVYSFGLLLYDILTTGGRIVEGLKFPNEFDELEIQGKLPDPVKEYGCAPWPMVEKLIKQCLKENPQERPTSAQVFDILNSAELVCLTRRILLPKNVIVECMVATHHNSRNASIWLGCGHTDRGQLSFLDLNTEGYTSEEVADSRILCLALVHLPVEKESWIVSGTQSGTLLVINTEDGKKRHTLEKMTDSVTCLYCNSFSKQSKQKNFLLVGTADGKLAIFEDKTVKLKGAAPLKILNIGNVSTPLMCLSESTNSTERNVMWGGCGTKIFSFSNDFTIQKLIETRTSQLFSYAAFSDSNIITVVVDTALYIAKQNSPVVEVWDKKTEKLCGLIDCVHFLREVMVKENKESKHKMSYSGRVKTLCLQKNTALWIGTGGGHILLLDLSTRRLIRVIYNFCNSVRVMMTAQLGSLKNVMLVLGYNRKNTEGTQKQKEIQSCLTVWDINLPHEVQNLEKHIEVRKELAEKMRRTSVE

| SMILES | IC50 [nM] |
| --- | --- |
| Clc1ccn2ncc(-c3cccc(N4CCNCC4)n3)c2c1 [Example 42, 5-chloro-3-(6-piperazin-1-yl-2-pyridyl)pyrazolo[1,5-a]pyridine] | 11 to 100 |
| Fc1cc(-c2cnn3ccc(Cl)cc23)nc(N2CCNCC2)c1 [Example 44, 5-chloro-3-(4-fluoro-6-piperazin-1-yl-2-pyridyl)pyrazolo[1,5-a]pyridine] | 11 to 100 |
| c1cc(-c2cnn3ccccc23)nc(N2CC3CC(C2)N3)c1 [Example 45, 3-[6-(3,6-Diazabicyclo[3.1.1]heptan-3-yl)-2-pyridyl]pyrazolo[1,5-a]pyridine] | 101 to 400 |
| Clc1ccn2ncc(-c3cccc(N4CC5CC(C4)N5)n3)c2c1 [Example 46, 3-(6-(5-chloropyrazolo[1,5-a]pyridin-3-yl)pyridin-2-yl)-3,6-diazabicyclo[3.1.1]heptane] | 11 to 100 |
| Clc1cc(-c2cnn3ccc(Cl)cc23)nc(N2CC3CC(C2)N3)c1 [Example 47, 5-chloro-3-[4-chloro-6-(3,6-diazabicyclo[3.1.1]heptan-3-yl)-2-pyridyl]pyrazolo[1,5-a]pyridine] | 101 to 400 |
| c1cc(-c2cnn3ccccc23)nc(N2CC3CCC2CN3)c1 (stereo not drawn) [Example 48, 3-[6-(2,5-diazabicyclo[2.2.2]octan-2-yl)-2-pyridyl]pyrazolo[1,5-a]pyridine] | 101 to 400 |
| CNc1ccn2ncc(-c3cccc(N4C[C@@H](C)N[C@@H](C)C4)n3)c2c1 [Example 53, 3-[6-[(3S,5R)-3,5-dimethylpiperazin-1-yl]-2-pyridyl]-N-methyl-pyrazolo[1,5-a]pyridin-5-amine] | 11 to 100 |
| C[C@@H]1CN(c2cc(Cl)cc(-c3cnn4ccc(C(F)(F)F)cc34)n2)C[C@H](C)N1 [Example 56, 3-[4-chloro-6-[(3S,5R)-3,5-dimethylpiperazin-1-yl]-2-pyridyl]-5-(trifluoromethyl)pyrazolo[1,5-a]pyridine] | ≤ 10 |
| C[C@@H]1CN(c2cccc(-c3cnn4ccc(Cl)cc34)n2)C[C@H](C)N1 [Example 57, 5-chloro-3-[6-[(3R,5S)-3,5-dimethylpiperazin-1-yl]-2-pyridyl]pyrazolo[1,5-a]pyridine] | ≤ 10 |
| C[C@@H]1CN(c2nc(-c3cnn4ccc(Cl)cc34)ccc2Cl)C[C@H](C)N1 [Example 60, 5-chloro-3-[5-chloro-6-[(3S,5R)-3,5-dimethylpiperazin-1-yl]-2-pyridyl]pyrazolo[1,5-a]pyridine] | 101 to 400 |
| C[C@@H]1CN(c2nc(-c3cnn4ccc(Cl)cc34)ccc2F)C[C@H](C)N1 [Example 61, 5-chloro-3-[6-[(3S,5R)-3,5-dimethylpiperazin-1-yl]-5-fluoro-2-pyridyl]pyrazolo[1,5-a]pyridine] | ≤ 10 |
| C[C@@H]1CN(c2cccc(-c3cnn4ccccc34)n2)CCN1 [Example 69, (R)-3-(6-(3-methylpiperazin-1-yl)pyridin-2-yl)pyrazolo[1,5-a]pyridine formate] | 11 to 100 |

More lines, now with the values ahead:

| IC50 [nM] | SMILES |
| --- | --- |
| 11 to 100 | Clc1cc(-c2cnn3ccc(Cl)cc23)nc(N2CCNCC2)c1 [Example 43, 5-chloro-3-(4-chloro-6-piperazin-1-yl-2-pyridyl)pyrazolo[1,5-a]pyridine] |
| 11 to 100 | C[C@@H]1CN(c2cccc(-c3cnn4ccccc34)n2)C[C@H](C)N1 [Example 49, 3-[6-[(3S,5R)-3,5-dimethylpiperazin-1-yl]-2-pyridyl]pyrazolo[1,5-a]pyridine] |
| 11 to 100 | C[C@@H]1CN(c2cccc(-c3cnn4ccccc34)n2)C[C@@H](C)N1 [Example 50, 3-[6-[(3R,5R)-3,5-dimethylpiperazin-1-yl]-2-pyridyl]pyrazolo[1,5-a]pyridine] |
| 11 to 100 | C[C@@H]1CN(c2cc(Cl)cc(-c3cnn4ccccc34)n2)C[C@H](C)N1 [Example 51, 3-[4-chloro-6-[(3S,5R)-3,5-dimethylpiperazin-1-yl]-2-pyridyl]pyrazolo[1,5-a]pyridine] |
| 11 to 100 | C[C@@H]1CN(c2cc(F)cc(-c3cnn4ccccc34)n2)C[C@H](C)N1 [Example 52, 3-[6-[(3R,5S)-3,5-dimethylpiperazin-1-yl]-4-fluoro-2-pyridyl]pyrazolo[1,5-a]pyridine] |
| 11 to 100 | CNc1ccn2ncc(-c3cc(Cl)cc(N4C[C@@H](C)N[C@@H](C)C4)n3)c2c1 [Example 54, 3-[4-chloro-6-[(3S,5R)-3,5-dimethylpiperazin-1-yl]-2-pyridyl]-N-methyl-pyrazolo[1,5-a]pyridin-5-amine] |
| ≤ 10 | C[C@@H]1CN(c2cccc(-c3cnn4ccc(C(F)(F)F)cc34)n2)C[C@H](C)N1 [Example 55, 3-[6-[(3S,5R)-3,5-dimethylpiperazin-1-yl]-2-pyridyl]-5-(trifluoromethyl)pyrazolo[1,5-a]pyridine] |
| ≤ 10 | C[C@@H]1CN(c2cc(F)cc(-c3cnn4ccc(Cl)cc34)n2)C[C@H](C)N1 [Example 58, 5-chloro-3-[6-[(3R,5S)-3,5-dimethylpiperazin-1-yl]-4-fluoro-2-pyridyl]pyrazolo[1,5-a]pyridine] |
| ≤ 10 | C[C@@H]1CN(c2cc(Cl)cc(-c3cnn4ccc(Cl)cc34)n2)C[C@H](C)N1 [Example 59, 5-chloro-3-[4-chloro-6-[(3S,5R)-3,5-dimethylpiperazin-1-yl]-2-pyridyl]pyrazolo[1,5-a]pyridine] |
| 11 to 100 | CNc1ccn2ncc(-c3cc(Cl)cc(C4CCCNC4)n3)c2c1 (stereo not drawn) [Example 62, 3-[4-chloro-6-(3-piperidyl)-2-pyridyl]-N-methyl-pyrazolo[1,5-a]pyridin-5-amine] |
| ≤ 10 | C[C@@H]1CN(c2ccc(Cl)c(-c3cnn4ccc(Cl)cc34)n2)C[C@H](C)N1 [Example 63, 5-chloro-3-[3-chloro-6-[(3S,5R)-3,5-dimethylpiperazin-1-yl]-2-pyridyl]pyrazolo[1,5-a]pyridine] |
| 11 to 100 | C[C@@H]1CN(c2ccc(F)c(-c3cnn4ccc(Cl)cc34)n2)C[C@H](C)N1 [Example 64, 5-chloro-3-[6-[(3S,5R)-3,5-dimethylpiperazin-1-yl]-3-fluoro-2-pyridyl]pyrazolo[1,5-a]pyridine] |
| ≤ 10 | CC(C)Oc1ccn2ncc(-c3cc(Cl)cc(C4CCCNC4)n3)c2c1 (stereo not drawn) [Example 65, 3-[4-chloro-6-(3-piperidyl)-2-pyridyl]-5-isopropoxy-pyrazolo[1,5-a]pyridine] |
| ≤ 10 | CC1(C)CN(c2cccc(-c3cnn4ccc(Cl)cc34)n2)CC(C)(C)N1 [Example 66, 5-chloro-3-[6-(3,3,5,5-tetramethylpiperazin-1-yl)-2-pyridyl]pyrazolo[1,5-a]pyridine] |
| 11 to 100 | CS(=O)(=O)CC(=O)Nc1ccn2ncc(-c3cccc(C4CCCNC4)n3)c2c1 (stereo not drawn) [Example 67, 2-(methylsulfonyl)-N-(3-(6-(piperidin-3-yl)pyridin-2-yl)pyrazolo[1,5-a]pyridin-5-yl)acetamide] |
| 11 to 100 | CS(=O)(=O)NCC(=O)Nc1ccn2ncc(-c3cccc(C4CCCNC4)n3)c2c1 (stereo not drawn) [Example 68, 2-(methylsulfonamido)-N-(3-(6-(piperidin-3-yl)pyridin-2-yl)pyrazolo[1,5-a]pyridin-5-yl)acetamide] |
| 11 to 100 | C[C@H]1CN(c2cccc(-c3cnn4ccccc34)n2)CCN1 [Example 70, (S)-3-(6-(3-methylpiperazin-1-yl)pyridin-2-yl)pyrazolo[1,5-a]pyridine formate] |
| 11 to 100 | C[C@@H]1CN(c2cccc(-c3cnn4ccc(Cl)cc34)n2)C[C@H](C)N1C [Example 71, 5-chloro-3-(6-((3S,5R)-3,4,5-trimethylpiperazin-1-yl)pyridin-2-yl)pyrazolo[1,5-a]pyridine] |
